Several values for one entry are separate records, joined by “and”; a condition that tells them apart may be missing. Identical values can stand only once.

From publication PMC10266688 (PLOS ONE, 2023) come the findings set out here.

Series [1] has as its system HMW polyUb proteins in ES2 cells. Nature of the series: Western blot for polyubiquitinated proteins. The note with it: by 12 h. (In general: Immunoblotting shows a protein as a band on a membrane.)
Series [2] has as its system proteasome (4UbFL reporter). In words: 4UbFL reporter assay in ES2 cells. The format is cell-based, human. The note with it: 4 h. The method, then:
Sub-confluent cultures of cells were transfected with 4UbFL plasmid using TransIT 2020 reagent (Mirus Bio). Cells were seeded at 10,000 cells/well in 96-well plates 48 h post transfection, and incubated with compounds or vehicle (DMSO) at the doses and for the times indicated. Luciferase activity in cell lysate was determined with a luciferase assay kit (Promega) according to the manufacturer’s instructions. Bioluminescence was measured using a Glomax Multidetection system (Promega).
Two days later, luciferin was injected IP and the baseline enzymic activity of luciferase in the transduced muscle tissue was visualized as bioluminescence within this region of interest (ROI) using an IVIS imager. […]. After 4h, 24h and 48h the mice were again injected with luciferin, imaged and bioluminescence was quantified (Fig 5B). […] A) ES2 cells stably transduced with the 4UbFL reporter plasmid were treated with compounds at indicated doses for 4 h. The cells were then washed, lysed and their luminescence measured by a luminometer after addition of luciferin. B) Female CD1 mice electroporated with 4UbFL plasmid in their leg muscle. After 48 h, the mice were injected with luciferin, imaged by IVIS for their basal bioluminescence and randomized into two groups of five. […]. D) Up284 tissue distribution. […].

The next series has as its system TC1-OVA cells. Nature of the series: Antigen presentation (H-2Kb/[…]) by TC1-OVA cells, flow cytometry. The class given is cell-based, mouse. The note with it: 0.25 μM, 12 h. A general note: A flow cytometer gives signals particle by particle.
Series [3] addresses T1, 42kDa cellular protein (RPN13) (Homo sapiens, UniProt Q16186).
T1 construct: endogenous in cells; host or cells: HeLa cell lysate
Nature of the series: Competition for RA190B binding in HeLa cell lysate. The note with it: HeLa lysate pre-treated with compound (5 μM) 45 min 4°C, then RA190B (20 μM). The method, then:
NEM (1 mM) used as positive control.

For the next series, the system named is HeLa cells. Nature of the series: MTT cytotoxicity assay, HeLa cells, 72 h. The format is cell-based. The note with it: Homo sapiens, 72 h treatment.
Another series relates to SKOV3 cells. Nature of the series: MTT cytotoxicity assay, SKOV3 cells, 72 h. The format is cell-based. The note with it: Homo sapiens, SK-OV-3; 72 h treatment.
Series [4] is described as follows: Repeat dosing toxicity study: hematologic parameters. The note with it: female CD1 mice, Up284 20 mg/kg, Bortezomib 1 mg/kg.
Protocol: The mice were divided into three groups consisting of three female CD1 mice each. […] Terminal blood sampling for hematological and serum biochemical analysis was performed on Day 7 of the study, 24 h after the last dosing. […] Terminal bleeding and euthanasia were performed on Day 7, 24 h after the third dosing. Blood collection was carried out after 6 h fasting. Animals were injected IP with 2,2,2-tribromoethanol (200 mg/kg) and the blood was collected from orbital sinuses into dry microtainers without anticoagulant. For the serum collection, the tubes with collected blood were held at RT for 15–60 min after blood drawing to form a clot, and then were centrifuged at 9000 rpm for 20 min at 4°C. The collected serum was frozen within 60–80 min after blood drawing and was stored at -20°C for further clinical chemistry analysis. For the hematological study, 25 μL of fresh blood was quickly mixed with an equal volume of 0.36% solution of K2EDTA in saline. Assessment of the hematological parameters was performed using the BIO TE hematology analyzer MCL-3124 and consumable reagents (Cormay) within 2 h of the blood draw. For clinical chemistry analyses, ASAT, ALAT, ALP, LDH, GGT, CK, Creatinine, Urea and TP were determined in the serum using commercial kits according to the manufacturer’s instructions.
In series [5] the test system is proteasome (4UbFL reporter). In words: 4UbFL reporter in ES2-4UbFL tumor and leg muscle of nude mice. The note with it: single IP dose Up284 20mg/kg or bortezomib 0.75 mg/kg, 4 h and 24 h. The format is in vivo, mouse. The method, then:
A-C) Female nude mice were inoculated IP with ES2-luc cells, a human ovarian cancer line expressing luciferase. […] The IP tumor tissue and electroporated normal muscle tissue, being spatially distinct, were identified with separate regions of interest (ROI) after simultaneous imaging with IVIS.
Briefly mice were inoculated IP with ES2 cells stably expressing 4UbFL. After 48 h, the mice were injected with luciferin, imaged and then randomized into 3 groups (n = 5/group). Next, leg muscle of each mouse was electroporated with 4UbFL plasmid (considered as normal tissue). After 48 h (i.e. day 4) the mice were re-imaged and basal bioluminescence (0 h) was separately measured in the leg muscle and peritoneal ROIs.

The next series deals with TOV21G and ES2 cells. Nature of the series: Annexin V apoptosis assay. The note with it: TOV21G and ES2, 12 h.

T1 sequence (Q16186 2-407): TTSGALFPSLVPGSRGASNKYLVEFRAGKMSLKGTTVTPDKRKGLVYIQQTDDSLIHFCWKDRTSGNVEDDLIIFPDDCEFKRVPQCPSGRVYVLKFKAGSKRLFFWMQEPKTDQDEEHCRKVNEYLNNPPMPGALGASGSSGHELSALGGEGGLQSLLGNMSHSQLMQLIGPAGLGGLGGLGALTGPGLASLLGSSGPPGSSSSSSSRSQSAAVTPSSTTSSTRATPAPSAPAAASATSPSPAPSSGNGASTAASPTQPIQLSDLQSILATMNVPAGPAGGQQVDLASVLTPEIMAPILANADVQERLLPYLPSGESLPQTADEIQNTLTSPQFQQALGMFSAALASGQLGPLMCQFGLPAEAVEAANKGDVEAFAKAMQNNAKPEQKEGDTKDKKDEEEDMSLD
Protocol for TC1-OVA cells: TC1 cells stably expressing Ovalbumin (TC1-OVA) were plated (125,000 cells/well) in a 6 well plate in 2 mL RPMI complete medium.
C) TC1-OVA cells were plated (125,000 cells/well) in a 6 well plate in 2 mL/well in complete medium.

Regarding `Cl.N[C@@H](Cc1ccccc1)C(=O)N1C/C(=C/c2ccc(Cl)c(Cl)c2)C(=O)/C(=C\c2ccc(Cl)c(Cl)c2)C1` [RA190, reference compound], the “accumulation of HMW polyUb proteins” value in [1] is recorded as “profound accumulation”. Besides, the “stabilization of 4UbFL reporter (fold increase in luminescence)” value in [2] is “dose-dependent stabilization”. In the series with TC1-OVA cells, the “MHC class I antigen presentation (SIINFEKL on H-2Kb)” value is given as “enhance MHC class I presentation”. The “competition for RA190B binding to the 42KDa cellular protein” value (“competition for RA190B binding” for short) in series [3] is “competed”.

One may read the IC50 as the midpoint of a concentration-inhibition curve. The low end stands for greater potency in that assay, the high end for weaker potency in that assay. For `C=CC(=O)N1CCC2(CC1)/C(=C\c1ccc(C#N)cc1)C(=O)/C2=C/c1ccc(C#N)cc1` [Up285], the IC50 came out at 25 nM with HeLa cells and 60 nM in the series with SKOV3 cells. The “competition for RA190B binding” value in series [3] is on record as “competed”.

With `N#Cc1ccc(/C=C2/C(=O)/C(=C/c3ccc(C#N)cc3)C23CCN(C(=O)c2ccccc2)CC3)cc1` [Up288], the concentration for half-maximal inhibition (IC50) came out at 280 nM in the series with HeLa cells and 390 nM in the series on SKOV3 cells.

Take `N#Cc1ccc(/C=C2/C(=O)/C(=C/c3ccc(C#N)cc3)C23CCN(C(=O)C(F)(F)F)CC3)cc1` [Up290]: the figures for the IC50 in the series on HeLa cells and in the series on SKOV3 cells were 150 nM and 290 nM, respectively.

`CCCC(CCC)C(=O)N1CCC2(CC1)/C(=C\c1ccc(C#N)cc1)C(=O)/C2=C/c1ccc(C#N)cc1` [Up291]: the results for the IC50 with HeLa cells and with SKOV3 cells were 250 nM and 420 nM, respectively.

Consider `N#Cc1ccc(/C=C2/C(=O)/C(=C/c3ccc(C#N)cc3)C23CCNC3)cc1` [Up302], for which the results for the IC50 with HeLa cells and with SKOV3 cells were 80 nM and 170 nM, respectively.

Consider `C=CC(=O)N1CCC2(C1)/C(=C\c1ccc(C#N)cc1)C(=O)/C2=C/c1ccc(C#N)cc1` (centres unmarked) [Up306], for which the results for the IC50 in the series on HeLa cells and in the series with SKOV3 cells were 50 nM and 120 nM, respectively.

With `CC(C)C[C@H](NC(=O)[C@H](Cc1ccccc1)NC(=O)c1cnccn1)B(O)O` [bortezomib], the MPV was 5.70 fL in [4] (group Mean); 5.70 fL and 5.60 fL and 5.80 fL in [4] (individual mice). Besides, in the series with TC1-OVA cells, the “MHC class I antigen presentation (SIINFEKL on H-2Kb)” value was “did not”. Besides, the “competition for RA190B binding” value in series [3] was “did not compete”. Moreover, the “4UbFL bioluminescence signal in muscle tissue vs tumor” value in series [5] was “similarly enhanced the bioluminescence signal”.

Take `N.N.[Cl][Pt][Cl]` [cisplatin, reference compound]: in the series on TOV21G and ES2 cells, the “Annexin-V positive cells, single agent” value is “minimal impact”.
